System: C. tyrobutyricum
Test: Batch fermentation in stirred-tank bioreactor on glucose and xylose with acetate and benzyl viologen added
Type: cell-based, Clostridium tyrobutyricum
Conditions: in the presence of 3.75 μM BV (0.30 g/g before BV addition); pH 6.0, ~18 g/L acetate added at ~48 h
Procedure: Batch fermentation in a stirred-tank bioreactor with C. tyrobutyricum grown on glucose and xylose at pH 6.0 was studied with the addition of ˜18 g/L acetate and 3.75 μM benzyl viologen (BV) at ˜48 h. With BV and acetate addition, C. tyrobutyricum converted glucose, xylose, and acetate simultaneously to butyrate as the sole fermentation product with close to 100% purity at an overall yield of ˜0.48 g/g substrate. Almost all glucose and acetate (both produced before BV addition and externally added) were consumed to produce butyrate, reaching a high concentration of ˜46 g/L. Butyric acid yield from sugars increased from 0.30 g/g before BV addition to 0.52 g/g from both sugars and acetate consumed in the presence of 3.75 μM BV. The theoretical yield of butyric acid from glucose in the fermentation is 0.8 mol/mol (0.39 g/g) when acetate (0.4 mol/mol) and carbon dioxide (2 mol/mol) are also produced as co-products. In contrast, butyrate formation from acetate has a theoretical yield of 0.73 g/g (0.5 mol/mol), which is 87.2% higher than that from glucose, because no substrate carbon is lost in carbon dioxide. In addition to the higher butyrate yield, butyrate was produced as the only main product in the fermentation with a high acid purity of 98.3%, which was much higher than ˜80% in typical butyric acid fermentation. […]

## c1ccc(C[n+]2ccc(-c3cc[n+](Cc4ccccc4)cc3)cc2)cc1 [BV, benzyl viologen]
  Butyric acid yield from both sugars and acetate consumed: 0.52 g/g
